# Test results reported in paper PMC3880103, “Cathepsin B/X is secreted by Echinometra lucunter sea urchin spines, a structure rich in granular cells and toxins” (The Journal of Venomous Animals and Toxins Including …, 2013).
# Tested on: T1, cathepsin B/X (cysteine peptidase of the spine aqueous extract)
# T1 construct: gene CTSB; anti-cathepsin B bands between 60 and 80 kDa
# Experiment: fluorogenic substrate hydrolysis (MCA release), non-linear regression
# Format: biochemical, Echinometra lucunter
# Settings: crude spine extract; 100 mM ammonium acetate, pH 7.4, 30°C; preincubated with 2 mM DTT
# Excerpt: fluorogenic substrate hydrolysis (MCA release), non-linear regression on cathepsin B/X (cysteine peptidase of the spine aqueous extract)
compound,measurement,value
"Cc1cc(=O)oc2cc(NC(=O)[C@H](CCCNC(=N)N)NC(=O)OCc3ccccc3)ccc12 [Z-R-MCA, carbobenzoxy-L-arginine-7-amino-4-methylcoumarin]",Km,147 ± 40 µM
